Patent publication US20060014790A1, “Methods of treatment of amyloidosis using spirocyclohexane aspartyl-protease inhibitors” (priority 2004, published 2006)

Legend:
[1] = Brain uptake (brain penetration after IV administration); settings: CF-1, mouse, in vivo, 10 μmol/kg
Description: The following assay was employed to determine the brain penetration of compounds encompassed by the present invention.
In-life phase: Test compounds were administered to CF-1 (20-30 g) mice at 10 μmol/kg (4 to 7 mg/kg) following IV administration in the tail vein. Two time-points, 5 and 60 min, were collected post dose. Four mice were harvested for heparinized plasma and non-perfused brains at each time-point for a total of 8 mice per compound.
Analytical phase: Samples were extracted and evaporated to dryness, then reconstituted and injected onto a reverse phase chromatographic column while monitoring the effluent with a triple quadrupole mass spectrometer. Quantitation was then performed with a 1/x^2 weighted fit of the least-squares regression from calibration standards prepared in parallel with the in vivo samples. The lower limit of quantitation (LOQ) is generally 1 ng/mL and 0.5 ng/g for the plasma and brain respectively. Data was reported in micromolar (μM) units. Brain levels were corrected for plasma volumes (16 μL/g).

[2] = Oral bioavailability after IV and PO administration; format: in vivo; settings: male, Sprague-Dawley, rat, plasma, read-out: Rat % F
Description: The invention encompasses compounds of formula (I) that are orally bioavailable. Oral bioavailability can be determined following both an intravenous (IV) and oral (PO) administration of a test compound.
Oral Bioavailability was determined in the male Sprague-Dawley rat following both IV and PO administration of test compound. Two month-old male rats (250-300 g) were surgically implanted with polyethylene (PE-50) cannula in the jugular vein while under isoflurane anesthesia the day before the in-life phase. Animals were fasted overnight with water ad libitum, then dosed the next day. The dosing regime consisted of either a 5 mg/kg (2.5 mL/kg) IV dose (N=3) administered to the jugular vein cannula, then flushed with saline, or a 10 mg/kg (5 mL/kg) PO dose (N=3) by esophageal gavage. Compounds were formulated with 10% Solutol in 5% dextrose at 2 mg/mL. […]
Compounds were extracted from samples following precipitation of the plasma proteins by methanol. […] Experimental samples were compared to calibration curves prepared in parallel with aged match rat plasma and quantitated with a weighted 1/x linear regression. […]
AUC is calculated from the linear trapezoidal rule by AUC=((C2+C1)/2)×(T2−T1) where C is concentration and T is time.
Pharmacokinetic parameters were calculated by a non-compartmental approach. […]

SMILES	Kp at 5 min [1]	Kp at 10 min [1]	bioavailability [2] [%]
CC(=O)NC(Cc1cc(F)cc(F)c1)C(O)CNC1(c2cccc(C(C)C)c2)CCC(=O)CC1 (stereo not shown) [Example 198-3, N-{1-(3,5-Difluoro-benzyl)-2-hydroxy-3-[1-(3-isopropyl-phenyl)-4-oxo-cyclohexylamino]-propyl}-acetamide]	0.5	8.4	
CC(=O)NC(Cc1cc(F)cc(F)c1)C(O)CNC1(c2cccc(-c3ccsc3)c2)CCCCC1 (stereo not shown) [Example 198-4, N-{1-(3,5-Difluoro-benzyl)-2-hydroxy-3-[1-(3-thiophen-3-yl-phenyl)-cyclohexylamino]-propyl}acetamide]	0.7	3.7	
CC(=O)NC(Cc1cc(F)cc(F)c1)C(O)CNC1(c2cccc(C(C)(C)C)c2)CCCCC1 (stereo not shown) [Example 198-1, N-[3-[1-(3-tert-Butyl-phenyl)-cyclohexylamino]-1-(3,5-difluoro-benzyl)-2-hydroxy-propyl]-acetamide]	1.7	3	
CC(=O)NC(Cc1cc(F)cc(F)c1)C(O)CNC1(c2cccc(C(C)(C)C)c2)CCCCC1 (stereo not shown) [Example 197-1, N-[3-[1-(3-tert-Butyl-phenyl)-cyclohexylamino]-1-(3,5-difluoro-benzyl)-2-hydroxy-propyl]-acetamide]			20.2
